Laboratory results published in patent publication US10125118B2, “Heteroaryl compounds and their use as therapeutic drugs” (Dong-A Socio Holdings Co., Ltd., priority 2015, dated 2018).

Key:
[1] = system: CD8-MerTK in Ba/F3-CDM cells; experiment: In cell MER kinase assay, Ba/F3-CDM cell proliferation without IL-3 (Celltiter-Glo); type: cell-based, murine; conditions: 48 hours compound treatment, read-out: Cell growth inhibition (GI50)
Procedure, shortened: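 Ba/F3 cells, IL-3-dependent, transfected with CD8-MerTK and grown without IL-3 in DMEM/10% FBS. IL-3-supplemented Ba/F3 cells run in parallel as a cytotoxicity control.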

[2] = molecular target: human c-MER catalytic domain (Homo sapiens (Human), UniProt Q12866); experiment: LanthaScreen TR-FRET kinase assay, c-MER; conditions: read-out: Mer TK inhibition (IC50); Biochemical IC50, TR-FRET, 10 uM ATP
Sequence of human c-MER catalytic domain (Q12866 587-858): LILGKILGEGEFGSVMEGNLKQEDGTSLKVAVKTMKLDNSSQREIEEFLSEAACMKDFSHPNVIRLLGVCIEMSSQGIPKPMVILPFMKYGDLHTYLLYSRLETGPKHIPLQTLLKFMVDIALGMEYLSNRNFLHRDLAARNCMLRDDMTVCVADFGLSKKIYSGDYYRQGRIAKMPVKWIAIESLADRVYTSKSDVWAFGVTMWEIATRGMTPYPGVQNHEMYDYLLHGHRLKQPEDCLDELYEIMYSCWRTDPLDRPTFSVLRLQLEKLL

| SMILES | GI50 [1] [nM] | IC50 [2] [nM] |
| --- | --- | --- |
| CC(c1ccc(-c2ccc(CO[C@H]3CN(C)C[C@@H]3NC(=O)c3cc(-c4cnn(C)c4)cnc3N)cc2)cc1)N1CCN(CCO)CC1 (stereo partly drawn) [Example 443, 2-amino-N-((3S,4S)-4-((4′-(1-(4-(2-hydroxyethyl)piperazin-1-yl)ethyl)-[1,1′-biphenyl]-4-yl)methoxy)-1-methylpyrrolidin-3-yl)-5-(1-methyl-1H-pyrazol-4-yl)nicotinamide] | < 100 | < 10 |
| Cn1cc(-c2cnc(N)c(C(=O)N[C@H]3CNC[C@@H]3OCc3ccc(-c4ccc(CN5CCN(CCO)CC5)c(C(F)(F)F)c4)cc3)c2)cn1 [Example 444, 2-amino-N-((3S,4S)-4-((4′-((4-(2-hydroxyethyl)piperazin-1-yl)-methyl)-3′-(trifluoromethyl)-[1,1′-biphenyl]-4-yl)methoxy)pyrrolidin-3-yl)-5-(1-methyl-1H-pyrazol-4-yl)nicotinamide] | > 1000 | < 10 |
| CN1C[C@H](NC(=O)c2cc(-c3cnn(C)c3)cnc2N)[C@@H](OCc2ccc(-c3ccc(CN4CCN(CCO)CC4)c(C(F)(F)F)c3)cc2)C1 [Example 445, 2-amino-N-((3S,4S)-4-((4′-((4-(2-hydroxyethyl)piperazin-1-yl)-methyl)-3′-(trifluoromethyl)-[1,1′-biphenyl]-4-yl)methoxy)-1-methylpyrrolidin-3-yl)-5-(1-methyl-1H-pyrazol-4-yl)nicotinamide] | < 100 | < 10 |
| Cn1cc(-c2cnc(N)c(C(=O)N[C@H]3CNC[C@@H]3OCc3ccc(-c4ccc(CN5CCN(CCO)CC5)cc4)cc3)c2)cn1 [Example 446, 2-amino-N-((3S,4S)-4-((4′-((4-(2-hydroxyethyl)piperazin-1-yl)-methyl)-[1,1′-biphenyl]-4-yl)methoxy)pyrrolidin-3-yl)-5-(1-methyl-1H-pyrazol-4-yl)-nicotinamide] | > 1000 | < 10 |
| CN1C[C@H](NC(=O)c2cc(-c3cnn(C)c3)cnc2N)[C@@H](OCc2ccc(-c3ccc(CN4CCN(CCO)CC4)cc3)cc2)C1 [Example 447, 2-amino-N-((3S,4S)-4-((4′-((4-(2-hydroxyethyl)piperazin-1-yl)-methyl)-[1,1′-biphenyl]-4-yl)methoxy)-1-methylpyrrolidin-3-yl)-5-(1-methyl-1H-pyrazol-4-yl)nicotinamide] | < 100 | < 10 |
| CN1CCN(Cc2ccc(-c3ccc(CO[C@H]4COC[C@@H]4NC(=O)c4cc(-c5cnn(C)c5)cnc4N)cc3)cc2)CC1 [Example 448, 2-amino-5-(1-methyl-1H-pyrazol-4-yl)-N-((3S,4R)-4-((4′-((4-methylpiperazin-1-yl)methyl)-[1,1′-biphenyl]-4-yl)methoxy)tetrahydrofuran-3-yl)-nicotinamide] | < 100 | < 10 |
| CN1CCN(Cc2ccc(-c3ccc(CO[C@H]4COC[C@@H]4NC(=O)c4cc(-c5cnn(C)c5)cnc4N)cc3)cc2C(F)(F)F)CC1 [Example 449, 2-amino-5-(1-methyl-1H-pyrazol-4-yl)-N-((3S,4R)-4-((4′-((4-methylpiperazin-1-yl)methyl)-3′-(trifluoromethyl)-[1,1′-biphenyl]-4-yl)methoxy)-tetrahydrofuran-3-yl)nicotinamide] | < 100 | < 10 |
| CN1CCN(C(C)(C)c2ccc(-c3ccc(CO[C@H]4COC[C@@H]4NC(=O)c4cc(-c5cnn(C)c5)cnc4N)cc3)cc2)CC1 [Example 450, 2-amino-5-(1-methyl-1H-pyrazol-4-yl)-N-((3S,4R)-4-((4′-(2-(4-methylpiperazin-1-yl)propan-2-yl)-[1,1′-biphenyl]-4-yl)methoxy)tetrahydrofuran-3-yl)nicotinamide] | < 100 | < 10 |
| Cn1cc(-c2cnc(N)c(C(=O)N[C@H]3COC[C@@H]3OCc3ccc(-c4ccc(CN5CCN(CCO)CC5)cc4)cc3)c2)cn1 [Example 451, 2-amino-N-((3S,4R)-4-((4′-((4-(2-hydroxyethyl)piperazin-1-yl)methyl)-[1,1′-biphenyl]-4-yl)methoxy)tetrahydrofuran-3-yl)-5-(1-methyl-1H-pyrazol-4-yl)nicotinamide] | < 100 | < 10 |
| Cn1cc(-c2cnc(N)c(C(=O)N[C@H]3COC[C@@H]3OCc3ccc(-c4ccc(CN5CCN(CCO)CC5)c(C(F)(F)F)c4)cc3)c2)cn1 [Example 452, 2-amino-N-((3S,4R)-4-((4′-((4-(2-hydroxyethyl)piperazin-1-yl)-methyl)-3′-(trifluoromethyl)-[1,1′-biphenyl]-4-yl)methoxy)tetrahydrofuran-3-yl)-5-(1-methyl-1H-pyrazol-4-yl)nicotinamide] | < 100 | < 10 |
| Cn1cc(-c2cnc(N)c(C(=O)N[C@H]3COC[C@@H]3OCc3ccc(-c4ccc(C(C)(C)N5CCN(CCO)CC5)cc4)cc3)c2)cn1 [Example 453, 2-amino-N-((3S,4R)-4-((4′-(2-(4-(2-hydroxyethyl)piperazin-1-yl)-propan-2-yl)-[1,1′-biphenyl]-4-yl)methoxy)tetrahydrofuran-3-yl)-5-(1-methyl-1H-pyrazol-4-yl)nicotinamide] | 100 to 500 | < 10 |
